Measured values reported in patent US11298339B2 (priority 2017, dated 2022).

Experiments:
Format in all cases: in vivo, C57BL/6J mice
[1] = test system: HBV; test: Compound 1 and SF18 in mouse model established by rAAV8-HBV1.3 (ayw) virus tail vein injection; conditions: 20 mg/kg i.v.
Protocol: Among them, there were 3 mice in each group. Administration was carried out for consecutive four weeks, blood was collected at orbital margin once per week, and HBsAg/HBeAg levels in supernatant were detected by Roche 601 instrument.

[2] = test system: HBV; test: Comparison of Compound 1 and Birinapant in chronic HBV infection mouse model (pAAV-HBV1.2 plasmid); conditions: for proportion of mice with serum HBsAg levels below the lower limit of detection: after 4 weeks of administration; for serum HBsAg level (individual): after one week of drug treatment
Protocol: Among them, there were 7 mice in each of Group A and Group B, and 6 mice in Group C. Compound 1 and Birinapant were administered once a week for five consecutive weeks. Blood was collected at orbital margin each week before the administration, and the HBsAg/HBeAg levels in supernatant were detected using Roche 601 instrument.

[3] = test system: HBV; test: Compound 1 alone in chronic HBV infection mouse model (high-pressure tail vein injection of pAAV-HBV1.2 plasmid)
Protocol: Male C57/B6 mice (6-8 weeks of age, body weight 20 f 2 g) were selected to establish a high-pressure tail vein injection mouse model, in which the tail of mice was wiped with 75% alcohol, and then irradiated with a far-infrared physiotherapy device for 2 to 3 minutes so that the tail vein of mice was turgid and clearly visible. […] Each mouse was injected with 10 μg of pAAV/HBV1.2 plasmid, and the amount of injection liquid (PBS) was 10% of body weight (2 mL/20 g). On the 14th day after the injection, blood was collected to detect HBsAg, and the successfully modeled mice with HBsAg>500 IU/ml were selected for further experiments (Huang, Wu et al. 2006; Chou, Chien et al. 2015). […] There were 6-8 mice in each group, which were administered once a week for 4 consecutive times and observed for 7 weeks.
After the mice serum were diluted 20-fold with PBS, the HBsAg and HBeAg titers of the serum were detected by using Abbott i2000SR microparticle chemiluminescence automatic detector. The serum HBV DNA was extracted by QIAamp DNA Mini Kit (Qiagen), the HBV DNA level in serum was quantified by Realtime-PCR (LightCycler 480, Roche) using DNA Amplification SYBR Green Kit (Roche), and the HBV plasmid PSM2 products with a series of concentration gradients were used as standards. The HBV primers used in this experiment were synthesized by Invitrogen (Shanghai) Trading Co., Ltd., and the primer sequences were as follows: HBV Hope-F (5′ to 3′ […]) and HBV Hope-R (5′ to 3′ […]). The liver tissues of mice were subjected to conventional formalin-fixation and paraffin-embedding, the resultant 4 μm sections were baked at 65° C. for 2 h, dehydrated with conventional ethanol gradients, infiltrated with hydrogen peroxide at room temperature for 30 min, washed with PBS for 5 min/time, 3 times in total, and blocked at room temperature for 1 h. After rabbit-anti-human HBcAg (B0586, DAKO) was added and incubated in a wet box at room temperature for 1 h, a GTvision III immunohistochemical detection kit of anti-rabbit anti-mice general type (GK50075, Shanghai Gene Technology Co., Ltd.) was used for incubation of secondary antibodies and development of color, and pictures at 200× magnification were taken with a normal optical upright microscope. 60 mg of liver tissue homogenate was weighed, added with 900 μl of lysate (50 mmol/L Tris-HCl PH 7.5+1 mmol/L EDTA), placed on ice, and after all samples were processed, 5 μl of […] was added and lysis was performed on ice, and then HBV DNA in liver tissue was extracted with phenol/chloroform, dissolved by adding 15 μl of RNase free water, run on a 1% agarose gel, transferred to membrane; then a full-length HBV probe labeled with digoxin was added, stood overnight at 46° C., subjected to DIG Washing Buffer once for 5 min, added with Anti-Digoxigenin-Ap Fab fragment (11093274910, Roche), and Image Quant LAS 4000mini was used for exposure and detection.

[4] = test system: HBV; test: Compound 1 in combination with TDF in pAAV-HBV1.2 high-pressure tail vein injection mouse model; conditions: Compound 1 10 mg/kg i.v. weekly x4; TDF 53 mg/kg gavage daily 10 days; observed 7 weeks
Protocol: After the mice serum were diluted 20-fold with PBS, the HBsAg and HBeAg titers of the serum were detected by using Abbott i2000SR microparticle chemiluminescence automatic detector. The serum HBV DNA was extracted by QIAamp DNA Mini Kit (Qiagen), the HBV DNA level in serum was quantified by Realtime-PCR (LightCycler 480, Roche) using DNA Amplification SYBR Green Kit (Roche), and the HBV plasmid PSM2 products with a series of concentration gradients were used as standards. The HBV primers used in this experiment were synthesized by Invitrogen (Shanghai) Trading Co., Ltd., and the primer sequences were as follows: HBV Hope-F (5′ to 3′ […]) and HBV Hope-R (5′ to 3′ […]). The liver tissues of mice were subjected to conventional formalin-fixation and paraffin-embedding, the resultant 4 μm sections were baked at 65° C. for 2 h, dehydrated with conventional ethanol gradients, infiltrated with hydrogen peroxide at room temperature for 30 min, washed with PBS for 5 min/time, 3 times in total, and blocked at room temperature for 1 h. […]

[5] = Liver damage after Compound 1 injection in HBV-infected mice (serum ALT/AST, HE staining of liver sections)
From the text: (§1) Chronic HBV infection mouse models were established by high-pressure tail vein injection of pAAV-HBV1.2 plasmid or recombinant virus rAAV8-1.3HBV injection of C57BL/6J mice (6 to 8 weeks of age, weight 20 f 2 g). […] Glutamic-oxalacetic transaminase (AST/GOT) kit (Nanjing Jiancheng, C010-2) and glutamic-pyruvic transaminase (ALT/GPT) kit (Nanjing Jiancheng, C009-2) were used to detect serum ALT and AST levels. Western blot was used to detect the expression of cIAPs molecules in liver tissues, and β-actin was used as a control. Intrahepatic inflammation and hepatocyte necrosis were detected by HE staining of liver tissue sections.

[6] = target: T1, cIAP2 (Mus musculus, UniProt O08863); test: Western blot of cIAPs molecules in liver tissue after Compound 1 injection; conditions: 10 mg/kg i.v.
T1 construct: Western blot was used to detect the expression of cIAPs molecules in liver tissues; from tissue; host or cells: liver tissue of C57BL/6J mice (HBV model, pAAV-HBV1.2)
T1 sequence (O08863 whole entry): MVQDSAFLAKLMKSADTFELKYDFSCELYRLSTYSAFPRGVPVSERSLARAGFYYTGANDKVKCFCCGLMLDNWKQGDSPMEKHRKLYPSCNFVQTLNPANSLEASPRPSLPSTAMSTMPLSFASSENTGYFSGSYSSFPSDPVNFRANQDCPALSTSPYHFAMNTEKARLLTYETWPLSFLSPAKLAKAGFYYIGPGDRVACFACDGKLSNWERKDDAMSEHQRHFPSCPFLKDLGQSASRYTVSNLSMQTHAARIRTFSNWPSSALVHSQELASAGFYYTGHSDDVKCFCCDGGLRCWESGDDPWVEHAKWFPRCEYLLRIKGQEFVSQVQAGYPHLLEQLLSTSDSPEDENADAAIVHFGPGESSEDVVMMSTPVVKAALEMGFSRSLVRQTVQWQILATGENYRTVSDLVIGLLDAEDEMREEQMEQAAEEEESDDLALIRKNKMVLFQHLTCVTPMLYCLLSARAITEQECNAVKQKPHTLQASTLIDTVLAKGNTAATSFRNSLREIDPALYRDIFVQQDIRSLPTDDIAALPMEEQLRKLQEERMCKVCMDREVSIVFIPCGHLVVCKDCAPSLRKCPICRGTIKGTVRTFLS
From the text: as §1

[7] = test system: HBcAg-positive liver cells; test: Apoptosis of HBV-infected liver cells, HBcAg immunofluorescence and Tunnel double staining, rAAV8-HBV1.3 virus injection mouse model; conditions: 20 mg/kg i.v.; 12 h after injection
From the text: as §1

[8] = test system: HBV-specific T cell response; test: HBV immune response in mice: liver lymphocyte counts and HBV-specific T cell response (flow cytometry, Core93-100 stimulation); conditions: 20 mg/kg once a week x4, 7th week
Protocol: There were 5 to 6 mice in each group, which were administered once a week for four consecutive times, and sacrificed on the 7th week, the mice liver lymphocytes were isolated, and cell counts and flow cytometry were used to detect the expression of CD4 and CD8 molecules in lymphocytes in the liver. The detection of HBV-specific T cell response was performed by using HBV core monopeptide (Core93-100) to stimulate lymphocytes, and the counts of CD4+ and CD8+ T cells that secreted IFNγ, TNFα and IL-2 were detected by flow cytometry cytokine intracellular staining method.

[9] = test system: HBV; test: Compound 1 in combination with IFNα2a in chronic HBV infection mouse model (pAAV-HBV1.2 plus pKCMvint IFNα-2a or control plasmid)
Protocol: One day after modeling, the mice were divided into 4 groups. […] There were 5 mice in each group (except Group D that included 7 mice), the administration was performed for consecutive 3 times, i.e., on the day 1 after modeling, and on the days 7 and 14 after modeling; blood was collected once at orbital margin one day before the administration, and serum HBsAg/HBeAg levels were detected using Roche 601 instrument.

[10] = test system: HBV; test: Compound 1 in combination with anti-PD1 antibody in chronic HBV infection mouse model (pAAV-HBV1.2 plasmid)
From the text: Among them, there were 7 mice in each group.

[11] = 20 mg/kg i.v. once a week x4, on the 5th week, faster than 10 mg/kg group
[12] = Compound 1 injection groups (10 and 20 mg/kg i.v., once a week x4), up to the 7th week
[13] = 10 mg/kg i.v., 12, 24, 48 hours after injection
[14] = stimulation with HBV core monopeptide (Core93-100)
[15] = Compound 1 20 mg/kg i.v. once per week, anti-PD1 antibody 200 μg/mice/time i.p. twice per week, five weeks

SMILES: CN[C@@H](C)C(=O)N[C@H]1CN(C(=O)Nc2ccc(NC(=O)N3CC[C@H]4CC[C@@H](C(=O)NC(c5ccccc5)c5ccccc5)N4C(=O)[C@@H](NC(=O)[C@H](C)NC)C3)cc2)CC[C@H]2CC[C@@H](C(=O)NC(c3ccccc3)c3ccccc3)N2C1=O [SF18]
- deaths during administration ([1]; 3 mice in the group): one mice died on the 2nd week and 4th week
- anti-HBV effect (conclusion) ([1]; four weeks): stronger than that of Compound 1
- decrease rate of HBeAg in mice serum ([1]; four weeks): significantly faster than those of the Compound 1 group
- decrease rate of HBsAg in mice serum ([1]; four weeks): significantly faster than those of the Compound 1 group

SMILES: CC[C@H](NC(=O)[C@H](C)NC)C(=O)N1C[C@@H](O)C[C@H]1Cc1c(-c2[nH]c3cc(F)ccc3c2C[C@@H]2C[C@H](O)CN2C(=O)[C@H](CC)NC(=O)[C@H](C)NC)[nH]c2cc(F)ccc12 [Birinapant, reference compound]
- proportion of mice with serum HBsAg levels below the lower limit of detection ([2]; 20 mg/kg i.v. once a week): 57%
- serum HBsAg level (individual) ([2]; 20 mg/kg i.v.): decreased significantly

SMILES: CN[C@@H](C)C(=O)N[C@H]1CN(S(=O)(=O)c2cccc(S(=O)(=O)N3CC[C@H]4CC[C@@H](C(=O)NC(c5ccccc5)c5ccccc5)N4C(=O)[C@@H](NC(=O)[C@H](C)NC)C3)c2)CC[C@H]2CCC(C(=O)NC(c3ccccc3)c3ccccc3)N2C1=O (stereo partly drawn) [Compound 1]
- serum HBV DNA [3, 11]: completely eliminated
- serum HBsAg [3, 11]: completely eliminated
- HBV replication intermediate in liver tissue (Southern blot) ([3]; 7 weeks after administration, compared with saline group): no HBV replication intermediate was detected
- serum HBV DNA [3, 12]: below the detection limit
- serum HBsAg [3, 12]: below the detection limit
- HBcAg expression in liver (immunohistochemical staining) ([3]; after 7 weeks of administration): not observed
- serum HBsAg clearance rate in comparison with control group [4]: statistically significant differences
- time at which serum ALT returned to normal levels ([5]; 10 mg/kg i.v.): around 48 hours
- time at which serum ALT rose to the highest value ([5]; 10 mg/kg i.v.): 12 h
- time at which serum AST returned to normal levels ([5]; 10 mg/kg i.v.): around 48 hours
- time at which serum AST rose to the highest value ([5]; 10 mg/kg i.v.): 12 h
- serum ALT change after injection [5, 13]: transient increase
- serum AST change after injection [5, 13]: transient increase
- liver tissue HE staining ([5]; 10 mg/kg i.v., 12 hours after injection, vicinity of portal areas, with lymphocyte infiltration): scattered necrotic lesions
- intrahepatic inflammation / fulminant hepatitis ([5]; after Compound 1 injection, only transient intrahepatic inflammation): did not cause fulminant hepatitis
- time at which inhibition of cIAP2 reached the strongest value [6]: 12 h
- inhibitory effect on cIAP2 in liver tissues (Western blot) ([6]; 12, 24, 48 h): strong inhibitory effect
- apoptosis of HBcAg-positive liver cells [7]: could be induced
- count of infiltrated CD4+ T cells in the liver vs control [8]: significantly increased
- count of infiltrated CD8+ T cells in the liver vs control [8]: significantly increased
- total lymphocyte number in the liver vs normal saline control [8]: significantly higher
- counts of CD4+ T cells that secreted IFNγ, TNFα and IL-2 [8, 14]: increased significantly
- counts of CD8+ T cells that secreted IFNγ, TNFα and IL-2 [8, 14]: increased significantly
- serum HBsAg compared with Group C (IFNα-2a) ([9]; 21st day, P 0.008): decreased significantly
- serum HBeAg compared with Group A (saline) ([9]; days 7, 14, 21 (P 0.004 on 7th day, 0.021 on 7th day as printed, 0.001 on 21st day)): statistically significant differences
- serum HBsAg compared with Group A (saline) ([9]; days 7, 14, 21 (P 0.010, 0.008, 0.004), Compound 1 10 mg/kg i.v. days 1, 7, 14, IFNα-2a plasmid-expressed): statistically significant differences
- clearance effect of HBsAg (overall level) vs saline injection group ([2]; 20 mg/kg i.v. once a week, five weeks): statistically significant difference
- proportion of mice with serum HBsAg levels below the lower limit of detection ([2]; 20 mg/kg i.v. once a week): 86%
- serum HBsAg level (individual) ([2]; 20 mg/kg i.v.): decreased significantly
- serum HBsAg level compared with Brinapant group ([2]; 20 mg/kg i.v., after one week, p=0.035): significantly lower than that of the Brinapant group
- clearance effect of HBsAg and HBeAg, overall comparison ([2]; same dosage and mode of administration (20 mg/kg i.v.)): superior to Birinapant
- serum HBeAg (individual) compared with Group A (saline) ([10]; 1st and 2nd weeks (P 0.029, 0.009)): statistically significant differences
- serum HBeAg compared with Group C (anti-PD1 antibody) ([10]; 1st and 2nd weeks, P week 1 0.016 (Group B), 0.007 (Group D), week 2 0.007, 0.002): decreased more significantly
- serum HBeAg level (overall) [10, 15]: significantly reduce
- serum HBsAg level (overall) [10, 15]: significantly reduce
- anti-HBV effect (conclusion) ([1]; four weeks): anti-HBV effect
